Results taken from ChEMBL document CHEMBL1154462, “Synthesis and in vitro anti-bacterial evaluation of tetracyclic-ortho-fused 4H-naphtho[1',2'-5,6]pyrano[3,4-d](1,2,3)selenadiazole and its derivatives” (2008).
In brackets after ≈: the same amount, converted by molar mass.

Columns and labels:
Type in all cases: functional
[1] = system: Escherichia coli; assay: Antibacterial activity against Escherichia coli isolate by agar cup method
[2] = system: Staphylococcus aureus; assay: Antibacterial activity against Staphylococcus aureus isolate by agar cup method
[3] = system: Pseudomonas aeruginosa; assay: Antibacterial activity against Pseudomonas aeruginosa isolate by agar cup method
[4] = system: Bacillus subtilis; assay: Antibacterial activity against Bacillus subtilis isolate by agar cup method

SMILES | MIC [1] [µg/mL] | MIC [2] [µg/mL] | MIC [3] [µg/mL] | MIC [4] [µg/mL]
Brc1ccc2c3c(ccc2c1)OCc1[se]nnc1-3 | 50 (≈ 137 µM) | 50 (≈ 137 µM) | 500 (≈ 1370 µM) | 100 (≈ 273 µM)
CC1Oc2ccc3ccccc3c2-c2nn[se]c21 (stereo not given) | 500 (≈ 1660 µM) | 250 (≈ 830 µM) | 1000 (≈ 3320 µM) | 250 (≈ 830 µM)
Brc1cccc2c3c(ccc12)OCc1[se]nnc1-3 | 250 (≈ 683 µM) | 50 (≈ 137 µM) | 1000 (≈ 2730 µM) | 100 (≈ 273 µM)
CC1Oc2ccc3cc(Br)ccc3c2-c2nn[se]c21 (stereo not given) | 500 (≈ 1320 µM) | 500 (≈ 1320 µM) | 1000 (≈ 2630 µM) | 50 (≈ 132 µM)
c1ccc2c3c(ccc2c1)OCc1[se]nnc1-3 | 250 (≈ 871 µM) | 250 (≈ 871 µM) | 1000 (≈ 3480 µM) | 250 (≈ 871 µM)
